Measurements taken from patent US7989657B2, “Anthranilic acid derivatives” (Hoffmann-La Roche Inc., priority 2005, dated 2011).

Assays:
HM74A = target: T1, HM74A (Homo sapiens, UniProt Q8TDS4); assay: Secondary fluorescent calcium indicator assay (FLIPR); type: cell-based; conditions: stable transfected HEK-293 cells expressing HM74A and chimeric G protein Gqi9; % stimulation of maximal nicotinic acid response (100 μM)
T1 construct: expressed in transfected cells; host or cells: HEK-293, stably transfected with pcDNA3.1 vectors
Description: Secondary Fluorescent Calcium Indicator Assay (FLIPR)
HEK-293 cells were grown in tissue culture medium (DMEM/Nut mix F12 Medium with Glutamax I (Invitrogen), containing 10% FBS) at 37° C. in a 5% CO2 atmosphere. These cells were cultured in 6-well dishes at 3×10^5 cells/well and double transfected with DNA vectors (pcDNA3.1, Invitrogen) expressing either HM74A or HM74 and the chimeric G protein Gqi9. Two days after transfection the wells were combined and plated in 150 cm^2 flasks, in the presence of 50 μg/ml Hygromycin (Invitrogen) and 500 μg/ml Geneticin (Gibco). Fourteen days after plating, colonies were picked, expanded and analyzed for expression using a functional assay (FLIPR). Stable transfected HEK-293 cells expressing either HM74A or HM74 and the chimeric G protein Gqi9 were plated at 50,000 cells/well in black 96-well plates with clear bottom (Costar) and cultured to confluency overnight in growth media (DMEM/Nut mix F12 Medium with Glutamax I (Invitrogen), containing 10% FBS) at 37° C. in a humidified cell incubator containing 5% CO2. Growth media was aspirated and replaced with 100 μl of 1×FLIPR Calcium Assay Dye (Molecular Devices) in Hank's balanced salt solution (HBSS) containing 10 mM HEPES, and […] probenecid (Sigma), for 1 hour at 37° C. Cell plates were transferred to a FLIPR unit (Molecular Devices), and 50 μl of 3× compound dilution were added. Fluorescence emissions were measured and the effects of compounds were expressed as % stimulation of maximal nicotinic acid response (100 μM). Sigmoidal curves were fitted using the XLfit3 program (ID Business Solutions Ltd. UK) and EC50 values determined.

T1 sequence (Q8TDS4 whole entry): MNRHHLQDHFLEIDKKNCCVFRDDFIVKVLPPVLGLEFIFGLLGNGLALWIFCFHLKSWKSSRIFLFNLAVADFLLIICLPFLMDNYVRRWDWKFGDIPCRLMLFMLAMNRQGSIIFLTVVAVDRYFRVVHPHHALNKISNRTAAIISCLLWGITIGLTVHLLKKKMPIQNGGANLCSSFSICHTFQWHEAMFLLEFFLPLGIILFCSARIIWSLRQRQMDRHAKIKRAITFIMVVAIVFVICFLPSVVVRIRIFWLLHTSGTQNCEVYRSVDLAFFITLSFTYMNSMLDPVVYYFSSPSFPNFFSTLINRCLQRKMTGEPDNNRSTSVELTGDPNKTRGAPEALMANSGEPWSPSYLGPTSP

Compound	EC50 (HM74A)	melting point
2-[4-(4-Fluoro-phenoxy)-benzoylamino]-benzoic acid [Example 2]	1100 nM	–
O=C(Nc1ccccc1C(=O)O)c1ccc(Oc2cccc(Cl)c2)cc1 [Example 17, 2-[4-(3-Chloro-phenoxy)-benzoylamino]-benzoic acid]	529 nM	–
Cc1cc(C(=O)Nc2ccccc2C(=O)O)ccc1Oc1ccccc1 [Example 30, 2-(3-Methyl-4-phenoxy-benzoylamino)-benzoic acid]	–	123 °C
O=C(Nc1ccccc1C(=O)O)c1ccc(Oc2cc(F)ccc2F)cc1 [Example 29, 2-[4-(2,5-Difluoro-phenoxy)-benzoylamino]-benzoic acid]	101 nM	–
